Assay results published in patent publication US20250295652A1, “Inhibitors of Molluscum Contagiosum Infection and Methods Using the Same” (priority 2021, published 2025).

Tests used:
VV = assay: microbe, parasite or virus in culture; type: cell-based, vaccinia virus; details: Orthopoxvirus vaccinia, BSC-1, read-out: VV EC50
mD4-VV surrogate virus = assay: microbe, parasite or virus in culture; type: cell-based, mD4/vaccinia hybrid virus; details: Hybrid virus, BSC-1, read-out: mD4 EC50
[1] = target: E9/A20/D4 proteins (molluscum mD4) (Molluscum contagiosum virus, UniProt Q98260); assay: biochemical
Chain of E9/A20/D4 proteins (molluscum mD4) (Q98260 1-226): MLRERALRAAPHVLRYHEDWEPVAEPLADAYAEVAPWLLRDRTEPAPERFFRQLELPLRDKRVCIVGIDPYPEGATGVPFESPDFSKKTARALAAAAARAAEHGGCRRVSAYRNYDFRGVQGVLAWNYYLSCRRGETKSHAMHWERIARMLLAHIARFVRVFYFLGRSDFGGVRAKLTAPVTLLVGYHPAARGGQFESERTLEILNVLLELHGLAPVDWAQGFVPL

`CCC(C(=O)Nc1sc(C(N)=O)c(C)c1C(=O)OC)c1ccccc1` (single isomer, unassigned) [Compound 29, Methyl 2-(2-phenylbutanamido)-5-carbamoyl-4-methylthiophene-3-carboxylate] showed an EC50 (VV) of 28 µM, an EC50 (mD4-VV surrogate virus) of 19.7 µM and an IC50 [1] of 13.4 µM.

For `COC(=O)c1c(NC(=O)C2(c3ccccc3)CC2)sc(C(N)=O)c1C` [Compound 36, 5-Carbamoyl-4-methyl-2-[(1-phenyl-cyclopropanecarbonyl)-amino]-thiophene-3-carboxylic acid methyl ester], the EC50 (VV) was 14.3 µM.

`CCC(C(=O)N(C(=O)C(CC)c1ccccc1)c1sc(C)c(C)c1C#N)c1ccccc1` (stereo not shown) [Compound 39, N-(3-Cyano-4,5-dimethyl-thiophen-2-yl)-2-phenyl-N-(2-phenyl-butyryl)-butyramide] gave an EC50 (VV) of 11 µM.

`Cc1c(C(N)=O)sc(NC(=O)C2CCCC2)c1C#N` [Compound 40, 4-cyano-5-(cyclopentanecarboxamido)-3-methylthiophene-2-carboxamide] was tested, and the EC50 (VV) was 47.4 µM.

Work on `Cc1c(C(N)=O)sc(N(C(=O)C2CCCc3ccccc32)C(=O)C2CCCc3ccccc32)c1C#N` (stereo not shown) [Compound 47, 5-[Bis-(1,2,3,4-tetrahydro-naphthalene-1-carbonyl)-amino]-4-cyano-3-methyl-thiophene-2-carboxylic acid amide] yielded an EC50 (VV) of 20 µM.

For `Cc1c(C(N)=O)sc(NC(=O)C2CCc3cc(Cl)ccc32)c1C#N` (stereo not shown) [Compound 50, 5-[(5-Chloro-indane-1-carbonyl)-amino]-4-cyano-3-methyl-thiophene-2-carboxylic acid amide], the EC50 (VV) was 33 µM.

With `COc1ccc(CN(Cc2ccc(OC)cc2)C(Cc2ccccc2)C(=O)Nc2sc(C(N)=O)c(C)c2C#N)cc1` (stereo not shown) [Compound 57, 5-(2-{Bis[(4-methoxyphenyl)methyl]amino}-3-phenylpropanamido)-4-cyano-3-methylthiophene-2-carboxamide] the EC50 (VV) was 20.8 µM.

With `CCC(C(=O)Nc1sc(C(=O)N(CC)CC)c(C)c1C#N)c1ccccc1` (stereo not shown) [Compound 66, 4-cyano-N,N-diethyl-3-methyl-5-(2-phenylbutanamido)thiophene-2-carboxamide] the EC50 (VV) was 42.2 µM.

In the case of `CCC(C(=O)Nc1snc(C)c1C#N)c1ccccc1` (stereo not shown) [Compound 68, N-(4-Cyano-3-methyl-isothiazol-5-yl)-2-phenyl-butyramide], the EC50 (VV) is reported as 8.6 µM.

Work on `CCOC(=O)c1sc(NC(=O)C(CC)c2ccccc2)cc1C` (stereo not shown) [Compound 72, ethyl 3-methyl-5-(2-phenylbutanamido)thiophene-2-carboxylate] yielded an EC50 (VV) of 19.1 µM.

Molecule `CCC(C(=O)Nc1sc(C(N)=O)c(C)c1C#N)c1ccc([N+](=O)[O-])cc1` (stereo not shown) [Compound 75, 5-(2-(4-Nitrophenyl)butanamido)-4-cyano-3-methylthiophene-2-carboxamide] has an EC50 (VV) of 35 µM.

With `CCC(C(=O)Nc1nc(-c2ccccc2)cs1)c1ccccc1` (stereo not shown) [Compound 76, 2-phenyl-N-(4-phenylthiazol-2-yl)butanamide] the EC50 (VV) was 18.4 µM.

For `CCC(C(=O)Nc1ncc(C(=O)OC)s1)c1ccccc1` (stereo not shown) [Compound 77, methyl 2-(2-phenylbutanamido)thiazole-5-carboxylate], the EC50 (VV) was 21.4 µM.

In the case of `CCC(C(=O)Nc1cc(C)ns1)c1ccccc1` (stereo not shown) [Compound 78, N-(3-methylisothiazol-5-yl)-2-phenylbutanamide], the EC50 (VV) is reported as 41.7 µM.

Work on `CCC(C(=O)Nc1sc(C(=O)OC)cc1C#N)c1ccccc1` (stereo not shown) [Compound 82, Methyl 5-(2-phenylbutanamido)-4-cyanothiophene-2-carboxylate] yielded an EC50 (VV) of 11 µM.

`O=C(NCc1ccc(Cl)cc1)c1nnsc1NC(=O)N1CCN(c2ccccn2)CC1` [Compound 83, N-(4-chlorobenzyl)-5-(4-(pyridin-2-yl)piperazine-1-carboxamido)-1,2,3-thiadiazole-4-carboxamide] showed an EC50 (VV) of 7.3 µM, an EC50 (mD4-VV surrogate virus) of 7.7 µM and an IC50 [1] of 31.4 µM.

`O=C(NCc1ccc(Cl)cc1)c1nnsc1NC(=O)N1CCN(c2ccccc2)CC1` [Compound 84, N-(4-chlorobenzyl)-5-(4-phenylpiperazine-1-carboxamido)-1,2,3-thiadiazole-4-carboxamide] showed an EC50 (VV) of 9.4 µM and an EC50 (mD4-VV surrogate virus) of 10 µM.

In the case of `COc1ccc(N2CCN(C(=O)Nc3snnc3C(=O)NCc3ccc(Cl)cc3)CC2)cc1` [Compound 86, N-(4-chlorobenzyl)-5-(4-(4-methoxyphenyl)piperazine-1-carboxamido)-1,2,3-thiadiazole-4-carboxamide], the EC50 (VV) is reported as 32.6 µM.

Molecule `Cc1nsc(NC(=O)C2CCc3ccccc32)c1C#N` (stereo not shown) [Compound 87, Indan-1-carboxylic acid (4-cyano-3-methyl-isothiazol-5-yl)-amide] has an EC50 (VV) of 17 µM.

`CCC(C(=O)Nc1snc(C)c1C(=O)OC)c1ccccc1` (stereo not shown) [Compound 89, 3-Methyl-5-(2-phenyl-butyrylamino)-isothiazole-4-carboxylic acid methyl ester] was tested, and the EC50 (VV) was 29.3 µM.

`CCC(C(=O)Nc1sncc1C#N)c1ccccc1` (stereo not shown) [Compound 90, N-(4-Cyano-isothiazol-5-yl)-2-phenyl-butyramide] showed an EC50 (VV) of 21.8 µM.

In the case of `CCC(C(=O)Nc1snnc1-c1ccc(C(F)(F)F)cc1)c1ccccc1` (stereo not shown) [Compound 109, 2-Phenyl-N-[4-(4-trifluoromethyl-phenyl)-[1,2,3]thiadiazol-5-yl]-butyramide], the EC50 (mD4-VV surrogate virus) is reported as 0.8 µM and the IC50 [1] is reported as 68.6 µM.

In the case of `CCC(C(=O)Nc1sccc1C(=O)NCc1ccc(Cl)cc1)c1ccccc1` (stereo not shown) [Compound 110, 2-(2-Phenylbutanamido)-N-(4-chlorobenzyl)thiophene-3-carboxamide], the EC50 (mD4-VV surrogate virus) is reported as 8 µM and the IC50 [1] is reported as greater than 100 µM.

`O=C(NCc1ccccc1)c1nnsc1NC(=O)N1CCN(c2ccccn2)CC1` [Compound 119, 4-Pyridin-2-yl-piperazine-1-carboxylic acid (4-benzylcarbamoyl-[1,2,3]thiadiazol-5-yl)-amide] was tested, and the EC50 (mD4-VV surrogate virus) was 10.3 µM and the IC50 [1] was greater than 100 µM.

Work on `O=C(NCc1ccc(F)c(F)c1)c1ccsc1NC(=O)N1CCN(c2ccccn2)CC1` [Compound 159, N-(3-(3,4-Difluorobenzylcarbamoyl)thiophen-2-yl)-4-(pyridin-2-yl)piperazine-1-carboxamide] yielded an EC50 (mD4-VV surrogate virus) of 12.8 µM and an IC50 [1] of 118 µM.

Molecule `CCC(C(=O)Nc1sccc1C(=O)NCc1ccc(F)c(F)c1)c1ccccc1` (stereo not shown) [Compound 160, 2-(2-Phenylbutanamido)-N-(3,4-difluorobenzyl)thiophene-3-carboxamide] has an EC50 (mD4-VV surrogate virus) of 10.6 µM and an IC50 [1] of 128 µM.

For `CCC(C(=O)Nc1sccc1C(=O)NCc1ccccc1)c1ccccc1` (stereo not shown) [Compound 161, 2-(2-Phenylbutanamido)-N-benzylthiophene-3-carboxamide], the EC50 (mD4-VV surrogate virus) was 12 µM and the IC50 [1] was 140 µM.

`CCC(C(=O)Nc1scnc1C(=O)NCc1ccc(Cl)cc1)c1ccccc1` (stereo not shown) [Compound 163, 5-(2-Phenylbutanamido)-N-(4-chlorobenzyl)thiazole-4-carboxamide] showed an EC50 (mD4-VV surrogate virus) of 12.1 µM and an IC50 [1] greater than 100 µM.

Molecule `O=C(NCc1ccc(Cl)cc1)c1nnsc1NC(=O)C1CCN(c2ccccn2)CC1` [Compound 167, N-(4-(4-Chlorobenzylcarbamoyl)-1,2,3-thiadiazol-5-yl)-1-(pyridin-2-yl)piperidine-4-carboxamide] has an EC50 (mD4-VV surrogate virus) of 17.8 µM and an IC50 [1] of 98.6 µM.

With `O=C(NCc1ccc(Cl)cc1)c1nnsc1NC(=O)N1CCN(c2ccccc2F)CC1` [Compound 168, 4-(2-Fluoro-phenyl)-piperazine-1-carboxylic acid [4-(4-chloro-benzylcarbamoyl)-[1,2,3]thiadiazol-5-yl]-amide] the EC50 (mD4-VV surrogate virus) was 11.9 µM and the IC50 [1] was 26.3 µM.

With `O=C(NCc1ccc(Cl)nc1)c1ccsc1NC(=O)N1CCN(c2ccccn2)CC1` [Compound 170, N-(3-((6-Chloropyridin-3-yl)methylcarbamoyl)thiophen-2-yl)-4-(pyridin-2-yl)piperazine-1-carboxamide] the EC50 (mD4-VV surrogate virus) was 14.9 µM and the IC50 [1] was greater than 200 µM.

`COc1ccccc1CN(C)C(=O)c1ccsc1NC(=O)N1CCN(c2ccccn2)CC1` [Compound 172, N-(3-(N-(2-Methoxybenzyl)-N-methylcarbamoyl)thiophen-2-yl)-4-(pyridin-2-yl)piperazine-1-carboxamide] showed an EC50 (mD4-VV surrogate virus) of 22.6 µM and an IC50 [1] of 117 µM.

`CN(Cc1ccccc1)C(=O)c1ccsc1NC(=O)N1CCN(c2ccccn2)CC1` [Compound 173, N-(3-(N-Benzyl-N-methylcarbamoyl)thiophen-2-yl)-4-(pyridin-2-yl)piperazine-1-carboxamide] gave an EC50 (mD4-VV surrogate virus) of 11.9 µM and an IC50 [1] greater than 200 µM.

`CCC(C(=O)Nc1sccc1C(=O)NCc1ccc(F)cc1)c1ccccc1` (stereo not shown) [Compound 179, 2-(2-Phenylbutanamido)-N-(4-fluorobenzyl)thiophene-3-carboxamide] showed an EC50 (mD4-VV surrogate virus) of 9.5 µM and an IC50 [1] of 51.3 µM.

In the case of `O=C(NCc1ccc(F)cc1)c1nnsc1NC(=O)N1CCN(c2ccccn2)CC1` [Compound 180, N-(4-(4-Fluorobenzylcarbamoyl)-1,2,3-thiadiazol-5-yl)-4-(pyridin-2-yl)piperazine-1-carboxamide], the EC50 (mD4-VV surrogate virus) is reported as 12.9 µM and the IC50 [1] is reported as 39 µM.

`O=C(NCc1ccc(F)cc1)c1ccsc1NC(=O)N1CCN(c2ccccn2)CC1` [Compound 181, N-(3-(4-Fluorobenzylcarbamoyl)thiophen-2-yl)-4-(pyridin-2-yl)piperazine-1-carboxamide] gave an EC50 (mD4-VV surrogate virus) of 16 µM and an IC50 [1] of 135 µM.

Molecule `O=C(NCCN1CCOCC1)Nc1snnc1C(=O)NCc1ccc(F)cc1` [Compound 182, 1-(4-(4-Fluorobenzylcarbamoyl)-1,2,3-thiadiazol-5-yl)-3-(2-morpholinoethyl)urea] has an EC50 (mD4-VV surrogate virus) of 12.4 µM and an IC50 [1] greater than 100 µM.

`O=C(NCCN1CCOCC1)Nc1snnc1C(=O)NCc1ccc(Cl)cc1` [Compound 183, 1-(4-(4-Chlorobenzylcarbamoyl)-1,2,3-thiadiazol-5-yl)-3-(2-morpholinoethyl)urea] showed an EC50 (mD4-VV surrogate virus) of 11.9 µM and an IC50 [1] greater than 100 µM.

With `O=C(NCCc1ccccn1)Nc1snnc1C(=O)NCc1ccc(F)cc1` [Compound 184, 1-(4-(4-Fluorobenzylcarbamoyl)-1,2,3-thiadiazol-5-yl)-3-(2-(pyridin-2-yl)ethyl)urea] the EC50 (mD4-VV surrogate virus) was 22.8 µM and the IC50 [1] was 60 µM.

Molecule `O=C(NCCc1ccccn1)Nc1snnc1C(=O)NCc1ccc(Cl)cc1` [Compound 185, 1-(4-(4-Chlorobenzylcarbamoyl)-1,2,3-thiadiazol-5-yl)-3-(2-(pyridin-2-yl)ethyl)urea] has an EC50 (mD4-VV surrogate virus) of 9.6 µM and an IC50 [1] of 64.7 µM.
